{
  "source": "patent US9683014B2",
  "about": "“Dipeptide mimetics of NGF and BDNF neurotrophins” (UCHREZHDENIE ROSSIISKOI AKADEMII MEDITSYNSKIKH NAUK …, priority 2009, dated 2017)",
  "key": {"[1]": {"system": "rats with hemorrhagic stroke", "settings": "1 mg/kg", "protocol": "The experiments were carried out on male white outbred rats weighing 220-250 g. […] The local cerebral hemorrhage (post-traumatic intracerebral hemorrhage) as a hemorrhagic stroke (HS) model was produced by the method of Makarenko (Makarenko A. N. et al., Zh. V. N. D. 2002, 52(6), 765-768).\nTo produce the stroke, rats were anesthetized with chloral hydrate (400 mg/kg i.m.) followed by craniotomy. The cerebral tissue in the region of internal capsule was destroyed followed (in 2-3 min) by the injection of blood (0.02-0.03 ml) taken from under the animal's tongue.\nThe neurological deficits, changes in the coordination of movements, muscle tone, orientation and exploratory behavior of the rats were recorded at 24 h after surgery.\nThe rats were monitored for 14 days after surgery. Animal's physical condition and behavioral features were recorded at 1, 3, 7 and 14 days.\nThe animals were distributed into 3 groups. Group 1 comprised sham-operated (SO) rats with craniotomy alone, group 2 comprised animals with HS, and group 3 comprised rats with HS treated with GK-2 (1 mg/kg at 3 h after surgery and every 48 hours thereafter for a total of 6 administrations). Group 1 and group 2 animals were treated with physiological saline in an equivalent volume.\nChanges in animals' physical condition and behavior were evaluated by conventional methods. The neurological status was assessed by scoring neurological deficits according to MacGrow's stroke scoring system as modified by I. V. Gannushkina; by the muscle tone and coordination of movements monitoring methods; cognitive function was assessed by the passive avoidance conditioned reflex (PAR); and orientation and exploratory behavior by using the open field test. Also the drug's effect on the survival of rats was monitored."}, "[2]": {"system": "Wistar rats", "settings": "1.0 mg/kg i.p. 24 h prior to scopolamine 1.0 mg/kg s.c.; FIG. 2.11", "protocol": "Male Wistar rats weighing 190-220 g were used for this experiment. The test compound was administered intraperitoneally at a dose of 1.0 mg/kg at 24 hours prior to the scopolamine injection (1.0 mg/kg s.c.). The control group was treated with distilled water according to the same regimen. Scopolamine was injected 60 min before placing the animals in a T-shaped maze. Following a further 120 min the animals were subjected to testing in accordance with the original protocol (Deacon R. M. J., Rawlins J. N. P. T-maze alternation in the rodent. Nature Protocols, 2006, 1(1), 7-12)."}, "[3]": {"system": "rats", "settings": "1.0 mg/kg i.p. 24 h prior to apomorphine (pretreatment); FIG. 2.10", "protocol": "The control group was treated with distilled water according to the same regimen."}},
  "note": "Like-named read-outs stand apart in the source and are kept apart here.",
  "data": [
    {"compound": "NCCCC[C@H](NC(=O)[C@H](CCC(=O)O)NC(=O)CCC(=O)O)C(=O)NCCCCCCNC(=O)[C@H](CCCCN)NC(=O)[C@H](CCC(=O)O)NC(=O)CCC(=O)O", "note": "[GK-2, bis-(N-monosuccinyl-glutamyl-lysine) hexamethylenediamide]", "values": [
      {"measurement": "Relative number of animals with paralysis of 1 to 4 limbs", "setting": "[1]; Day 1, SO 0, HS 0", "result": 0, "unit": "%"},
      {"measurement": "Relative number of animals with paresis of 1 to 4 limbs", "setting": "[1]; Day 1, SO 0, HS 37.5", "result": 20, "unit": "%"},
      {"measurement": "Relative number of animals with ring movements", "setting": "[1]; Day 1, SO 0, HS 50", "result": 20, "unit": "%"},
      {"measurement": "Relative number of animals with limb weakness", "setting": "[1]; Day 1, SO 30, HS 75", "result": 30, "unit": "%"},
      {"measurement": "Relative number of animals with floppiness & slowness of movements", "setting": "[1]; Day 1, SO 40, HS 100", "result": 40, "unit": "%"},
      {"measurement": "Number of rats failing to mount the horizontal bar, abs.", "setting": "[1]; Day 1, sham 3/10, stroke 6/8", "result": "4/10"},
      {"measurement": "Number of rats missing the rotating rod (3 rpm) during 2 min, abs.", "setting": "[1]; Day 1, sham 3/10, stroke 6/8", "result": "4/10"},
      {"measurement": "Vertical motor activity", "setting": "[1]; Day 1, sham 5.0, stroke 1.25", "result": "3.7 ± 0.9"},
      {"measurement": "Exploration of openings", "setting": "[1]; Day 1, sham 10.3, stroke 1.9", "result": "3.6 ± 0.7"},
      {"measurement": "Horizontal motor activity", "setting": "[1]; Day 1, sham 14.1, stroke 4.4", "result": "9.9 ± 2.1"},
      {"measurement": "Number of rats failing to mount the horizontal bar, %", "setting": "[1]; Day 1, sham 30, stroke 75", "result": 40, "unit": "%"},
      {"measurement": "Number of rats missing the rotating rod (3 rpm) during 2 min, %", "setting": "[1]; Day 1, sham 30, stroke 75", "result": 40, "unit": "%"},
      {"measurement": "Cumulative index", "setting": "[1]; Day 1, sham 30.3, stroke 7.5", "result": "17.2 ± 3.5"},
      {"measurement": "Relative number of animals with paralysis of 1 to 4 limbs", "setting": "[1]; Day 3, SO 0, HS 0", "result": 0, "unit": "%"},
      {"measurement": "Relative number of animals with paresis of 1 to 4 limbs", "setting": "[1]; Day 3, SO 0, HS 25", "result": 0, "unit": "%"},
      {"measurement": "Relative number of animals with ring movements", "setting": "[1]; Day 3, SO 0, HS 37.5", "result": 10, "unit": "%"},
      {"measurement": "Relative number of animals with limb weakness", "setting": "[1]; Day 3, SO 30, HS 75", "result": 30, "unit": "%"},
      {"measurement": "Relative number of animals with floppiness & slowness of movements", "setting": "[1]; Day 3, SO 30, HS 100", "result": 30, "unit": "%"},
      {"measurement": "Number of rats failing to mount the horizontal bar, abs.", "setting": "[1]; Day 3, sham 2/10, stroke 3/8", "result": "2/10"},
      {"measurement": "Number of rats missing the rotating rod (3 rpm) during 2 min, abs.", "setting": "[1]; Day 3, sham 2/10, stroke 5/8", "result": "3/10"},
      {"measurement": "Exploration of openings", "setting": "[1]; Day 3, sham 4.0, stroke 3.1", "result": "3.7 ± 0.9"},
      {"measurement": "Vertical motor activity", "setting": "[1]; Day 3, sham 4.6, stroke 1.1", "result": "2.4 ± 0.6"},
      {"measurement": "Horizontal motor activity", "setting": "[1]; Day 3, sham 9.3, stroke 3.0", "result": "5.6 ± 1.4"},
      {"measurement": "Cumulative index", "setting": "[1]; Day 3, sham 17.9, stroke 7.2", "result": "11.7 ± 2.4"},
      {"measurement": "Number of rats failing to mount the horizontal bar, %", "setting": "[1]; Day 3, sham 20, stroke 37.5", "result": 20, "unit": "%"},
      {"measurement": "Number of rats missing the rotating rod (3 rpm) during 2 min, %", "setting": "[1]; Day 3, sham 20, stroke 62.5", "result": 30, "unit": "%"},
      {"measurement": "Relative number of animals with paralysis of 1 to 4 limbs", "setting": "[1]; Day 7, SO 0, HS 0", "result": 0, "unit": "%"},
      {"measurement": "Relative number of animals with paresis of 1 to 4 limbs", "setting": "[1]; Day 7, SO 0, HS 0", "result": 0, "unit": "%"},
      {"measurement": "Relative number of animals with ring movements", "setting": "[1]; Day 7, SO 0, HS 0", "result": 0, "unit": "%"},
      {"measurement": "Relative number of animals with floppiness & slowness of movements", "setting": "[1]; Day 7, SO 0, HS 43", "result": 0, "unit": "%"},
      {"measurement": "Relative number of animals with limb weakness", "setting": "[1]; Day 7, SO 0, HS 43", "result": 0, "unit": "%"},
      {"measurement": "Number of rats failing to mount the horizontal bar, %", "setting": "[1]; Day 7, sham 0, stroke 43", "result": 10, "unit": "%"},
      {"measurement": "Number of rats missing the rotating rod (3 rpm) during 2 min, %", "setting": "[1]; Day 7, sham 0, stroke 43", "result": 20, "unit": "%"},
      {"measurement": "Number of rats failing to mount the horizontal bar, abs.", "setting": "[1]; Day 7, sham 0/10, stroke 3/7", "result": "1/10"},
      {"measurement": "Number of rats missing the rotating rod (3 rpm) during 2 min, abs.", "setting": "[1]; Day 7, sham 0/10, stroke 3/7", "result": "2/10"},
      {"measurement": "Exploration of openings", "setting": "[1]; Day 7, sham 3.7, stroke 2.9", "result": "4.3 ± 0.9"},
      {"measurement": "Vertical motor activity", "setting": "[1]; Day 7, sham 4.1, stroke 1.0", "result": "4.4 ± 0.7"},
      {"measurement": "Horizontal motor activity", "setting": "[1]; Day 7, sham 8.6, stroke 3.7", "result": "8.1 ± 1.6"},
      {"measurement": "Cumulative index", "setting": "[1]; Day 7, sham 16.4, stroke 7.6", "result": "16.8 ± 2.7"},
      {"measurement": "Relative number of animals with floppiness & slowness of movements", "setting": "[1]; Day 14, SO 0, HS 0", "result": 0, "unit": "%"},
      {"measurement": "Relative number of animals with limb weakness", "setting": "[1]; Day 14, SO 0, HS 0", "result": 0, "unit": "%"},
      {"measurement": "Relative number of animals with paralysis of 1 to 4 limbs", "setting": "[1]; Day 14, SO 0, HS 0", "result": 0, "unit": "%"},
      {"measurement": "Relative number of animals with paresis of 1 to 4 limbs", "setting": "[1]; Day 14, SO 0, HS 0", "result": 0, "unit": "%"},
      {"measurement": "Relative number of animals with ring movements", "setting": "[1]; Day 14, SO 0, HS 0", "result": 0, "unit": "%"},
      {"measurement": "Number of rats failing to mount the horizontal bar, %", "setting": "[1]; Day 14, sham 0, stroke 17", "result": 0, "unit": "%"},
      {"measurement": "Number of rats missing the rotating rod (3 rpm) during 2 min, %", "setting": "[1]; Day 14, sham 0, stroke 17", "result": 0, "unit": "%"},
      {"measurement": "Number of rats failing to mount the horizontal bar, abs.", "setting": "[1]; Day 14, sham 0/10, stroke 1/6", "result": "0/10"},
      {"measurement": "Number of rats missing the rotating rod (3 rpm) during 2 min, abs.", "setting": "[1]; Day 14, sham 0/10, stroke 1/6", "result": "0/10"},
      {"measurement": "Exploration of openings", "setting": "[1]; Day 14, sham 5.0, stroke 2.8", "result": "3.2 ± 0.9"},
      {"measurement": "Vertical motor activity", "setting": "[1]; Day 14, sham 5.1, stroke 1.0", "result": "2.8 ± 0.9"},
      {"measurement": "Horizontal motor activity", "setting": "[1]; Day 14, sham 9.1, stroke 1.8", "result": "7.5 ± 1.7"},
      {"measurement": "Cumulative index", "setting": "[1]; Day 14, sham 19.2, stroke 5.7", "result": "13.5 ± 2.9"},
      {"measurement": "scopolamine-induced working memory impairment (spontaneous alternation, T-maze)", "setting": "[2]", "result": "could prevent"},
      {"measurement": "intensity of apomorphine-induced oral stereotypy", "setting": "[3]", "result": "enhanced the intensity"}
    ]}
  ]
}
